{"source": "patent US6458389B1", "about": "(priority 1997, dated 2002)", "origin": "cited, not measured here", "key": {"rats": {"system": "rats", "settings": "rat, in vivo, iv"}, "mice": {"system": "mice", "settings": "mice treated orally, toxic dose of 70 mg/kg"}}, "note": "Like-named read-outs stand apart in the source and are kept apart here."}
{"compound": "N.N.[Cl][Pt][Cl]", "note": "[cisplatin]", "values": [{"measurement": "Electron microscope analysis of tissues (kidneys)", "setting": "48 hours after oral administration", "value": "only slight changes in the kidneys"}, {"measurement": "Electron microscope analysis of tissues (kidneys)", "setting": "intravenous administration", "value": "symptoms of nephrotoxicity are observable"}, {"measurement": "Urea concentrations in the blood, multiplication factor", "setting": "rats", "value": 14}, {"measurement": "Histopathological change in the kidneys", "setting": "mice", "value": "No histopathological change in the kidneys"}]}
